Reference: patent US11412737B2, “Mixtures of beflubutamid or optically enriched forms thereof with a second herbicide” (FMC Corporation, priority 2016, dated 2022)
Several values for one entry are separate records, joined by “and”; a condition that tells them apart may be missing. Identical values can stand only once.

Columns and labels:
Blackgrass (ALOMY) = test: pre-emergence test, weed control; assay type: in vivo; conditions: pre-emergent, 28 DAT
Procedure: (§1) Test compositions containing the test compounds were diluted with water to provide the appropriate test rate concentrations.
(§2) For pre-emergence testing, four disposable fiber flats (6 inch by 10 inch) for each rate of application of each herbicide solution were filled with top soil, to which seeds of each species were planted in furrows made by a template pressed on the top of the soil. The furrows were covered with soil after planting the seed and were watered well before application of the test compounds.
(§3) Fiber flats designated for treatment were placed in a spray chamber having a static platform and a movable sprayer and the height of the spray nozzle was 10.5 inches above the soil level. Once the sprayer was calibrated using water for spray volume of 30 gallons per acre, flats were sprayed with sprayer at a speed to receive a coverage equivalent of 30 gallons per acre. The application rates are those shown in the Tables below for the individual herbicidal solutions and the herbicide compositions of this invention. The pre-emergence flats were immediately placed in the greenhouse and watered lightly after treatment. Thereafter they were regularly watered and fertilized for the duration of the test.
(§4) The control of weeds was evaluated in each experimental test at 21 for wheat and 28 days after treatment (DAT) for all species. Data were analyzed using Minitab software at 95% confidence interval. The results, shown as an average of the replications, were compared with results observed in untreated control flats in the same tests. Percent control was determined by a method similar to the 0 to 100 rating system disclosed in “Research Methods in Weed Science,” 2nd ed., B. Truelove, Ed.; Southern Weed Science Society; Auburn University, Auburn, Ala., 1977. The rating system is as follows in Table 1.

Yellow foxtail (SETLU) = test: pre-emergence test, weed control; assay type: in vivo; conditions: pre-emergent, 28 DAT
Procedure: as §1, §2, §3, §4

Hemp sesbania (SEHE8) = test: pre-emergence test, weed control; assay type: in vivo; conditions: pre-emergent, 28 DAT; BFL at 187.5 g, PYX at 90 g, combination of both
Procedure: as §1, §2, §3, §4

Cheat grass (BROSE) = test: pre-emergence test, weed control; assay type: in vivo; conditions: pre-emergent, 28 DAT, (+)-BFL >95% e.e.; rate g ai/ha by row: r6 62.5, r7 125, r8 62.5, r9 125, r10 222, r11 445, r12 22.5, r13 45, r14 62.5+62.5, r15 125+62.5, r16 62.5+125, r17 125+125, r18 62.5+222, r19 125+222, r20 62.5+445, r21 125+445, r22 62.5+22.5, r23 125+22.5, r24 62.5+45, r25 125+45
Procedure: as §1, §2, §3, §4

Common chickweed (STEME) [1] = test: post-emergence test, weed control; assay type: in vivo, Stellaria media; conditions: post-emergent, 28 DAT; BFL at 187.5 g, PYX at 45 g, combination of both
Procedure: as §1
For post-emergence testing, seeds of each species for each rate of application of each herbicide solution were planted in 7.5 cm×7.5 cm plastic pots filled with potting soil. The seeds were germinated and the resulting plants were allowed to grow in a greenhouse until they reached a growth stage, such as height, suitable for testing. […] Pots of post-emergent treated plants were returned to the greenhouse and not watered for 24 hours after treatment. Thereafter they were regularly watered and fertilized for the duration of the test.
The control of weeds was evaluated in each experimental test at 21 for wheat and 28 days after treatment (DAT) for all species. […] The rating system is as follows in Table 1.

Wild oat (AVEFA) [2] = test: pre-emergence test, weed control; assay type: in vivo, Avena fatua; conditions: pre-emergent, 28 DAT
Procedure: as §1, §2, §3, §4

Wild oat (AVEFA) [3] = test: post-emergence test, weed control; assay type: in vivo, Avena fatua; conditions: post-emergent, 28 DAT; BFL at 187.5 g, PYX at 90 g, combination of both
Procedure: as §1
(§5) For post-emergence testing, seeds of each species for each rate of application of each herbicide solution were planted in 7.5 cm×7.5 cm plastic pots filled with potting soil. The seeds were germinated and the resulting plants were allowed to grow in a greenhouse until they reached a growth stage, such as height, suitable for testing. Treatments were applied using compressed air in a track spray chamber at 30 gallons/acre (280 L/ha) using a TeeJet 8001E nozzle at 40 psi (2.76 bars). Pots of post-emergent treated plants were returned to the greenhouse and not watered for 24 hours after treatment. Thereafter they were regularly watered and fertilized for the duration of the test.
as §4

Palmer amaranth (AMAPA) = test: pre-emergence test, weed control; assay type: in vivo, Amaranthus palmeri; conditions: pre-emergent, 28 DAT, (−)-BFL >95% e.e.; rate g ai/ha by row: r6 62, r7 125, r8 125, r9 250, r10 445, r11 890, r12 45, r13 90, r14 62+125, r15 125+125, r16 62+250, r17 125+250, r18 62+445, r19 125+445, r20 62+890, r21 125+890, r22 62+45, r23 125+45, r24 62+90, r25 125+90
Procedure: as §1, §2, §3, §4

Green foxtail (SETVI) [4] = test: pre-emergence test, weed control; assay type: in vivo, Setaria viridis; conditions: pre-emergent, 28 DAT
Procedure: as §1, §2, §3, §4

[5] = system: Common lambsquarters (CHEAL); test: pre-emergence test, weed control; assay type: in vivo, Chenopodium album; conditions: pre-emergent, 28 DAT
Procedure: as §1, §2, §3, §4

Common chickweed (STEME) [6] = test: pre-emergence test, weed control; assay type: in vivo, Stellaria media; conditions: pre-emergent, 28 DAT; BFL at 187.5 g, PYX at 90 g, combination of both
Procedure: as §1, §2
Fiber flats designated for treatment were placed in a spray chamber having a static platform and a movable sprayer and the height of the spray nozzle was 10.5 inches above the soil level. Once the sprayer was calibrated using water for spray volume of 30 gallons per acre, flats were sprayed with sprayer at a speed to receive a coverage equivalent of 30 gallons per acre. […]
The control of weeds was evaluated in each experimental test at 21 for wheat and 28 days after treatment (DAT) for all species. Data were analyzed using Minitab software at 95% confidence interval. […] Percent control was determined by a method similar to the 0 to 100 rating system disclosed in “Research Methods in Weed Science,” 2nd ed., B. Truelove, Ed.; Southern Weed Science Society; Auburn University, Auburn, Ala., 1977. […]

Redrice (ORYSA) = test: post-emergence test, weed control; assay type: in vivo; conditions: post-emergent, 28 DAT; BFL at 187.5 g, PYX at 90 g, combination of both
Procedure: as §1, §5, §4

Jimsonweed (DATST) = test: pre-emergence test, weed control; assay type: in vivo, Datura stramonium; conditions: pre-emergent, 28 DAT; BFL at 187.5 g, PYX at 90 g, combination of both
Procedure: as §1, §2, §3, §4

Green foxtail (SETVI) [7] = test: post-emergence test, weed control; assay type: in vivo, Setaria viridis; conditions: post-emergent, 28 DAT; BFL at 187.5 g, PYX at 90 g, combination of both
Procedure: as §1, §5, §4

Rice flatsedge (CYPIR) = test: pre-emergence test, weed control; assay type: in vivo; conditions: pre-emergent, 28 DAT; rate g ai/ha by row: r5 94, r6 125, r7 250, r8 3.28, r9 6.56, r10 13.1, r11 94+3.28, r12 94+6.56, r13 94+13.1, r14 125+3.28, r15 125+6.56, r16 125+13.1
Procedure: as §1, §2, §3, §4

Kochia (KCHSC) = test: pre-emergence test, weed control; assay type: in vivo; conditions: pre-emergent, 28 DAT; rate g ai/ha by row: r5 94, r6 125, r7 250, r8 3.28, r9 6.56, r10 13.1, r11 94+3.28, r12 94+6.56, r13 94+13.1, r14 125+3.28, r15 125+6.56, r16 125+13.1
Procedure: as §1, §2, §3, §4

[8] = (+)-BFL >95% e.e., rate g ai/ha by row: r6 62.5, r7 125, r8 62.5, r9 125, r10 222, r11 445, r12 22.5, r13 45, r14 62.5+62.5, r15 125+62.5, r16 62.5+125, r17 125+125, r18 62.5+222, r19 125+222, r20 62.5+445, r21 125+445, r22 62.5+22.5, r23 125+22.5, r24 62.5+45, r25 125+45
[9] = (−)-BFL >95% e.e., rate g ai/ha by row: r6 62, r7 125, r8 125, r9 250, r10 445, r11 890, r12 45, r13 90, r14 62+125, r15 125+125, r16 62+250, r17 125+250, r18 62+445, r19 125+445, r20 62+890, r21 125+890, r22 62+45, r23 125+45, r24 62+90, r25 125+90, 45 g ai/ha
[10] = (−)-BFL >95% e.e., rate g ai/ha by row: r6 62, r7 125, r8 125, r9 250, r10 445, r11 890, r12 45, r13 90, r14 62+125, r15 125+125, r16 62+250, r17 125+250, r18 62+445, r19 125+445, r20 62+890, r21 125+890, r22 62+45, r23 125+45, r24 62+90, r25 125+90, 90 g ai/ha
[11] = (+)-BFL >95% e.e., rate g ai/ha by row: r6 62.5, r7 125, r8 62.5, r9 125, r10 222, r11 445, r12 22.5, r13 45, r14 62.5+62.5, r15 125+62.5, r16 62.5+125, r17 125+125, r18 62.5+222, r19 125+222, r20 62.5+445, r21 125+445, r22 62.5+22.5, r23 125+22.5, r24 62.5+45, r25 125+45, 22.5 g ai/ha
[12] = (+)-BFL >95% e.e., rate g ai/ha by row: r6 62.5, r7 125, r8 62.5, r9 125, r10 222, r11 445, r12 22.5, r13 45, r14 62.5+62.5, r15 125+62.5, r16 62.5+125, r17 125+125, r18 62.5+222, r19 125+222, r20 62.5+445, r21 125+445, r22 62.5+22.5, r23 125+22.5, r24 62.5+45, r25 125+45, 45 g ai/ha
[13] = (−)-BFL >95% e.e., rate g ai/ha by row: r6 62, r7 125, r8 125, r9 250, r10 445, r11 890, r12 45, r13 90, r14 62+125, r15 125+125, r16 62+250, r17 125+250, r18 62+445, r19 125+445, r20 62+890, r21 125+890, r22 62+45, r23 125+45, r24 62+90, r25 125+90

Structure (SMILES): Cn1nc(C(F)(F)F)c(CS(=O)(=O)C2=NOC(C)(C)C2)c1OC(F)F [PYX, Pyroxasulfone]
- percentage of weed control, ALOMY (Blackgrass (ALOMY); [8]): 100%
- percentage of weed control, ALOMY (Blackgrass (ALOMY); [9]): 100%
- percentage of weed control, ALOMY (Blackgrass (ALOMY); [10]): 99%
- percentage of weed control, SETLU (Yellow foxtail (SETLU); [11]): 99%
- percentage of weed control, SETLU (Yellow foxtail (SETLU); [12]): 100%
- percentage of weed control, SETLU (Yellow foxtail (SETLU); [13]): 100%
- control of hemp sesbania (Hemp sesbania (SEHE8)): 67%
- percentage of weed control, BROSE (Cheat grass (BROSE)): 100%
- control of common chickweed (Common chickweed (STEME) [1]): 22%
- percentage of weed control, AVEFA (Wild oat (AVEFA) [2]; [11]): 98%
- percentage of weed control, AVEFA (Wild oat (AVEFA) [2]; [12]): 96%
- percentage of weed control, AVEFA (Wild oat (AVEFA) [2]; [9]): 100%
- percentage of weed control, AVEFA (Wild oat (AVEFA) [2]; [10]): 99%
- control of wild oats (Wild oat (AVEFA) [3]): 48%
- percentage of weed control, AMAPA (Palmer amaranth (AMAPA)): 100%
- percentage of weed control, SETVI (Green foxtail (SETVI) [4]; [11]): 97%
- percentage of weed control, SETVI (Green foxtail (SETVI) [4]; [12]): 99%
- percentage of weed control, SETVI (Green foxtail (SETVI) [4]; [13]): 99%
- percentage of weed control, CHEAL [5, 8]: 100%
- control of common chickweed (Common chickweed (STEME) [6]): 67%
- control of red rice (Redrice (ORYSA)): 39%
- control of jimsonweed (Jimsonweed (DATST)): 72%
- control of green foxtail (Green foxtail (SETVI) [7]): 66%

Structure (SMILES): COC(=O)c1c(Cl)nn(C)c1S(=O)(=O)NC(=O)Nc1nc(OC)cc(OC)n1 [Halosulfuron-methyl]
- percentage of weed control, Rice flatsedge CYPIR (Rice flatsedge (CYPIR)): 95% and 71% and 99%
- percentage of weed control, Kochia KCHSC (Kochia (KCHSC)): 66% and 38% and 40%
- percentage of weed control, Common lambsquarters CHEAL ([5]; rate g ai/ha by row: r5 94, r6 125, r7 250, r8 3.28, r9 6.56, r10 13.1, r11 94+3.28, r12 94+6.56, r13 94+13.1, r14 125+3.28, r15 125+6.56, r16 125+13.1): 86% and 56% and 90%
